SMILES strings stand for the structures.

The target in the assay is T1, P2X7 receptor (Homo sapiens, UniProt Q99572).
T1 construct: host or cells: THP-1 cells differentiated with LPS and IFN-γ
T1 sequence (Q99572 1-595): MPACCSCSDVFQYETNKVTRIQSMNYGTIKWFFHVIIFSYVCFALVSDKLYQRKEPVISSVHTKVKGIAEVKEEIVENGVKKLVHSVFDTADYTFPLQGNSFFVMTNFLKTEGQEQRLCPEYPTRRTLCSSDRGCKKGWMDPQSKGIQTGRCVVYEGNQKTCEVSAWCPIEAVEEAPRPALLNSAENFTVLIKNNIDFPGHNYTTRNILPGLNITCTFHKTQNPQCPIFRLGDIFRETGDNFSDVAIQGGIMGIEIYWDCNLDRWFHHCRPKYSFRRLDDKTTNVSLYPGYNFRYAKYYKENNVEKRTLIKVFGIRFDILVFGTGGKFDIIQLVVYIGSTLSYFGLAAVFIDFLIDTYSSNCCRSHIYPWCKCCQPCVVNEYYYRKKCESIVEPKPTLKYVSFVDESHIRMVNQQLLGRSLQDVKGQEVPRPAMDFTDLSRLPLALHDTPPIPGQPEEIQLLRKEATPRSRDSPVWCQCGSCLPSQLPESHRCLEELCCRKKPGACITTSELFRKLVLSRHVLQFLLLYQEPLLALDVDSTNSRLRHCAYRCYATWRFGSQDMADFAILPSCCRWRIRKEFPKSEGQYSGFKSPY
Nature of the assay: IL-1β release assay in differentiated THP-1 cells (Example 9). In kind it is cell-based. The following applies: THP-1 cells differentiated with LPS and IFN-γ; 30 min pretreatment; BzATP 250 uM; IL-1β by ELISA. The procedure: THP-1 cells (ATCC Cat #285-IF-100) are plated in 96 well plates at a concentration of 200,000 cells per well and allowed to differentiate in RPMI-1640 media (ATCC Cat #30-2001) containing 10% FBS, 100 IU/mL penicillin, 100 ug/mL streptomycin, 100 ng/mL LPS and 100 ng/mL IFN-γ for 16 hours. Following differentiation, the cells are treated for an additional 2 hours in RPMI-1640 media containing 100 IU/mL penicillin, 100 ug/mL streptomycin and fresh LPS at 100 ng/mL. The cells are then pretreated for 30 minutes with the compound of interest at the appropriate concentration in RPMI media containing 100 IU/mL penicillin, 100 ug/mL streptomycin. Following the pretreatment 2′,3′-O-(4-benzoylbenzoyl)-adenosine 5′-triphosphate (Sigma Aldrich Cat # B6396) is added to a final concentration of 250 uM, and the cells are incubated for an additional 45 minutes. 30 uL of cell supernatant is then collected and IL-1β levels are determined via ELISA (R&D systems Cat. # HSLB50) according to manufacturer's recommendations using a Tecan Safire plate reader. Background adjusted IL-1β levels of drug treated and non-treated cells are used to calculate the percent inhibition.
The following compounds have been or can be prepared according to the synthetic methods described herein for example, methods A-AA1. The compounds set forth in Table 1 were tested for activity in a cellular model as described herein. Specifically, cells were pretreated with differing amounts of the compound under test and released IL-1β determined as in Example 9, above. Measurements were made and IC50 values, presented in Table 1, below, were determined by fitting the data to a four parameter logistic equation using GraphPad Prism software (GraphPad Software, Inc). The equation may be expressed by the following formula: Y=Bottom+(Top−Bottom)/(1+10^((Log EC50−X)*HillSlope)) where X is the logarithm of concentration, Y is the response and Y starts at Bottom and goes to Top with a sigmoid shape.
Background: An ELISA detects its analyte on a solid surface through an enzyme-linked reagent.
For `Cc1ccc2c(=O)n(CCO)ccc2c1NC(=O)Cc1ccc(F)c(C(F)(F)F)c1` [Compound 27, 2-(4-Fluoro-3-trifluoromethyl-phenyl)-N-[2-(2-hydroxy-ethyl)-6-methyl-1-oxo-1,2-dihydro-isoquinolin-5-yl]-acetamide], the IC50 amounted to 7 nM.
With `Cc1ccc2c(=O)n([C@H](C)CO)ccc2c1C(=O)NCc1ccc(Cl)c(F)c1` [Compound 50, 2-((R)-2-Hydroxy-1-methyl-ethyl)-6-methyl-1-oxo-1,2-dihydro-isoquinoline-5-carboxylic acid 4-chloro-3-fluoro-benzylamide] the figure was 3 nM; with `Cc1ccc2c(=O)n([C@H](C)CO)ccc2c1NC(=O)CC1CCCCCC1` [Compound 32, 2-Cycloheptyl-N-[2-((R)-2-hydroxy-1-methyl-ethyl)-6-methyl-1-oxo-1,2-dihydro-isoquinolin-5-yl]-acetamide], 9 nM; with `COc1ccc2c(=O)n([C@H](C)C(N)=O)ccc2c1NC(=O)Cc1ccc(C(F)(F)F)cc1` [Compound 7, (R)-2-{6-Methoxy-1-oxo-5-[2-(4-trifluoromethyl-phenyl)-acetylamino]-1H-isoquinolin-2-yl}-propionamide], 48 nM.
With `Cc1ccc2c(=O)n(C(CO)CO)ccc2c1NC(=O)Cc1ccc(C(F)(F)F)c(F)c1` [Compound 62, 2-(3-Fluoro-4-trifluoromethyl-phenyl)-N-[2-(2-hydroxy-1-hydroxymethyl-ethyl)-6-methyl-1-oxo-1,2-dihydro-isoquinolin-5-yl]-acetamide] the figure was 30 nM; with `Cc1ccc2c(=O)n([C@@H](C)CO)ccc2c1NC(=O)Cc1ccc(C(F)(F)F)c(F)c1` [Compound 33, (S)-2-(3-fluoro-4-(trifluoromethyl)phenyl)-N-(2-(1-hydroxypropan-2-yl)-6-methyl-1-oxo-1,2-dihydroisoquinolin-5-yl)acetamide], 53 nM; with `Cc1ccc2c(=O)n([C@H](C)CO)ccc2c1C(=O)NCC1(O)CCCCCC1` [Compound 52, 2-((R)-2-Hydroxy-1-methyl-ethyl)-6-methyl-1-oxo-1,2-dihydro-isoquinoline-5-carboxylic acid (1-hydroxy-cycloheptylmethyl)-amide], 4 nM.
The figure for `CNC[C@@H](C)n1ccc2c(NC(=O)Cc3ccc(C(F)(F)F)c(F)c3)c(C)ccc2c1=O` [Compound 59, 2-(3-Fluoro-4-trifluoromethyl-phenyl)-N-[6-methyl-2-((R)-1-methyl-2-methylamino-ethyl)-1-oxo-1,2-dihydro-isoquinolin-5-yl]-acetamide] is 2 nM; for `C[C@H](CO)n1ccc2c(C(=O)NCC3(O)CC4CCC3C4)c(Cl)ccc2c1=O` (stereo partly drawn) [Compound 53, 6-Chloro-2-((R)-2-hydroxy-1-methyl-ethyl)-1-oxo-1,2-dihydro-isoquinoline-5-carboxylic acid (2-hydroxy-bicyclo[2.2.1]hept-2-ylmethyl)-amide] it is 532 nM; for `Cc1ccc2c(=O)n([C@H](C)CN)ccc2c1NC(=O)Cc1ccc(C(F)(F)F)c(F)c1` [Compound 58, N-[2-((R)-2-Amino-1-methyl-ethyl)-6-methyl-1-oxo-1,2-dihydro-isoquinolin-5-yl]-2-(3-fluoro-4-trifluoromethyl-phenyl)-acetamide] it is 0.01 nM.
With `C[C@H](CO)n1ccc2c(C(=O)NCc3ccc(C(F)(F)F)nc3)c(Cl)ccc2c1=O` [Compound 43, 6-Chloro-2-((R)-2-hydroxy-1-methyl-ethyl)-1-oxo-1,2-dihydro-isoquinoline-5-carboxylic acid (6-trifluoromethyl-pyridin-3-ylmethyl)-amide], the IC50 is 310 nM.
As for `CNCCn1ccc2c(NC(=O)Cc3ccc(C(F)(F)F)c(F)c3)c(C)ccc2c1=O` [Compound 38, 2-(3-Fluoro-4-trifluoromethyl-phenyl)-1-[6-methyl-2-(2-methylamino-ethyl)-1-oxo-1,2-dihydroisoquinolin-5-yl]-acetamide], the IC50 is 43 nM.
The figure for `C[C@@H](C(N)=O)n1ccc2c(NC(=O)Cc3ccc(C(F)(F)F)cc3)c(Cl)ccc2c1=O` [Compound 8, (S)-2-{6-Chloro-1-oxo-5-[2-(4-trifluoromethyl-phenyl)-acetylamino]-1H-isoquinolin-2-yl}-propionamide] is 113 nM; for `Cc1ccc2c(=O)n(CCO)ccc2c1NC(=O)Cc1cccc(C(F)(F)F)c1F` [Compound 24, 2-(2-Fluoro-3-trifluoromethyl-phenyl)-N-[2-(2-hydroxy-ethyl)-6-methyl-1-oxo-1,2-dihydro-isoquinolin-5-yl]-acetamide] it is 65 nM.
With `C[C@H](CO)n1ccc2c(NC(=O)Cc3ccc(C(F)(F)F)c(F)c3)c(C3CC3)ccc2c1=O` [Compound 17, N-[6-Cyclopropyl-2-((R)-2-hydroxy-1-methyl-ethyl)-1-oxo-1,2-dihydro-isoquinolin-5-yl]-2-(3-fluoro-4-trifluoromethyl-phenyl)-acetamide] the figure was 9 nM; with `C[C@H](CO)n1ccc2c(C(=O)NCc3ccccc3C(F)(F)F)c(Cl)ccc2c1=O` [Compound 46, 6-Chloro-2-((R)-2-hydroxy-1-methyl-ethyl)-1-oxo-1,2-dihydro-isoquinoline-5-carboxylic acid 2-trifluoromethyl-benzylamide], 500 nM; with `C[C@H](CO)n1ccc2c(NC(=O)Cc3ccc(Cl)c(Cl)c3)c(Cl)ccc2c1=O` [Compound 12, N-[6-Chloro-2-((R)-2-hydroxy-1-methyl-ethyl)-1-oxo-1,2-dihydro-isoquinolin-5-yl]-2-(3,4-dichloro-phenyl)-acetamide], 13 nM.
The figure for `O=C(Cc1cccc(C(F)(F)F)c1F)Nc1c(Cl)ccc2c(=O)n(CCO)ccc12` [Compound 20, N-[6-Chloro-2-(2-hydroxy-ethyl)-1-oxo-1,2-dihydro-isoquinolin-5-yl]-2-(2-fluoro-3-trifluoromethyl-phenyl)-acetamide] is 63 nM.
Take `Cc1ccc2c(=O)n([C@H](C)CN3CC[C@H](N)C3)ccc2c1NC(=O)Cc1ccc(C(F)(F)F)c(F)c1` [Compound 66]: the half-maximal inhibitory concentration (IC50) was found to be 5 nM.
The figure for `C[C@H](CO)n1ccc2c(C(=O)NCC3(O)CCC(F)CC3)c(Cl)ccc2c1=O` (stereo partly shown) [Compound 69] is 6 nM; for `Cc1ccc2c(=O)n([C@H](C)CN3CCNCC3)ccc2c1NC(=O)Cc1ccc(C(F)(F)F)c(F)c1` [Compound 60, 2-(3-Fluoro-4-trifluoromethyl-phenyl)-N-[6-methyl-2-((R)-1-methyl-2-piperazin-1-yl-ethyl)-1-oxo-1,2-dihydro-isoquinolin-5-yl]-acetamide] it is 1 nM; for `C[C@H](CO)n1ccc2c(NC(=O)CC3CCCCCC3)c(Cl)ccc2c1=O` [Compound 36, N-[6-Chloro-2-((R)-2-hydroxy-1-methyl-ethyl)-1-oxo-1,2-dihydro-isoquinolin-5-yl]-2-cycloheptyl-acetamide] it is 4 nM.
With `Cc1ccc2c(=O)n([C@H](C)CO)ccc2c1NC(=O)CC1(O)CCCCCC1` [Compound 37, 2-(1-Hydroxy-cycloheptyl)-N-[2-((R)-2-hydroxy-1-methyl-ethyl)-6-methyl-1-oxo-1,2-dihydroisoquinolin-5-yl]-acetamide] the figure was 42 nM.
`C[C@@H](CO)n1ccc2c(NC(=O)Cc3ccc(C(F)(F)F)c(F)c3)c(Cl)ccc2c1=O` [Compound 34, N-[6-Chloro-2-((S)-2-hydroxy-1-methyl-ethyl)-1-oxo-1,2-dihydro-isoquinolin-5-yl]-2-(3-fluoro-4-trifluoromethyl-phenyl)-acetamide]: the IC50 came to 23 nM.
The figure for `O=C(Cc1cccc(C(F)(F)F)c1F)Nc1c(NCCO)ccc2c(=O)n(CCO)ccc12` [Compound 18, 2-(2-Fluoro-3-trifluoromethyl-phenyl)-N-[2-(2-hydroxy-ethyl)-6-(2-hydroxy-ethylamino)-1-oxo-1,2-dihydro-isoquinolin-5-yl]-acetamide] is 1670 nM.

For orientation: IC50 means the point on the concentration scale where inhibition reaches its midpoint.

These data come from US8093265B2, “Bicycloheteroaryl compounds as P2X7 modulators and uses thereof” (Renovis, Inc., priority 2007, dated 2012).
